Assay results published in ChEMBL document CHEMBL1201862, “PubChem BioAssay data set” (2004).
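Each compound was tested at five concentrations against cells in 96-well plates for 48 hours. GI50 marks 50% less growth.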 The source made the active and inactive calls. Rule as the data show it: active = GI50 up to about 1.1 µM and inactive = higher.

Tests used:
Assay in all cases: NCI anticancer screen, dose series, 48 h
MDA-MB-435 = system: MDA-MB-435
LOX IMVI = system: LOX IMVI
MCF7 = system: MCF7
UACC-62 = system: UACC-62
SNB-75 = system: SNB-75
T47D = system: T47D
RPMI-8226 = system: RPMI-8226
NCI-H460 = system: NCI-H460
SNB-19 = system: SNB-19
OVCAR-5 = system: OVCAR-5
DU-145 = system: DU-145
HOP-62 = system: HOP-62
HCT-15 = system: HCT-15
Malme-3M = system: Malme-3M
MDA-N = system: MDA-N
MDA-MB-231 = system: MDA-MB-231
HOP-92 = system: HOP-92
U-251 = system: U-251
HCT-116 = system: HCT-116
SF-539 = system: SF-539
SK-MEL-2 = system: SK-MEL-2
UACC-257 = system: UACC-257
HCC 2998 = system: HCC 2998
OVCAR-4 = system: OVCAR-4
SN12C = system: SN12C
SF-295 = system: SF-295
NCI-H23 = system: NCI-H23
KM12 = system: KM12
CCRF-CEM = system: CCRF-CEM
ACHN = system: ACHN
SW-620 = system: SW-620
SR = system: SR
SK-OV-3 = system: SK-OV-3
EKVX = system: EKVX
COLO 205 = system: COLO 205
OVCAR-8 = system: OVCAR-8
A498 = system: A498
SF-268 = system: SF-268
PC-3 = system: PC-3
HL-60 = system: HL-60
OVCAR-3 = system: OVCAR-3
MOLT-4 = system: MOLT-4
HT-29 = system: HT-29
IGROV-1 = system: IGROV-1
TK-10 = system: TK-10
NCI-H226 = system: NCI-H226
SK-MEL-5 = system: SK-MEL-5
BT-549 = system: BT-549
786-0 = system: 786-0
SK-MEL-28 = system: SK-MEL-28
CAKI-1 = system: CAKI-1
A549 = system: A549
K562 = system: K562
UO-31 = system: UO-31
M14 = system: M14
NCI-H522 = system: NCI-H522
NCI/ADR-RES = system: NCI/ADR-RES
Hs-578T = system: Hs-578T

Measured: GI50

C/C(=N\NC(=S)N1CCOCC1)c1nc2cccnc2[nH]1
inactive: MDA-MB-435 > 100 µM | LOX IMVI 29.4 µM | MCF7 30.5 µM | UACC-62 37.7 µM | SNB-75 18.2 µM | T47D 29.4 µM | RPMI-8226 42.6 µM | NCI-H460 31.4 µM | SNB-19 21.9 µM | OVCAR-5 59.6 µM | DU-145 39.9 µM | HOP-62 24.9 µM | Malme-3M > 100 µM | MDA-N > 100 µM | MDA-MB-231 28.9 µM | HOP-92 14.1 µM | U-251 21.6 µM | HCT-116 27.8 µM | SF-539 19.3 µM | SK-MEL-2 17.9 µM | UACC-257 26 µM | HCC 2998 78.3 µM | OVCAR-4 13.7 µM | SN12C 74 µM | SF-295 23.8 µM | NCI-H23 35.2 µM | KM12 67 µM | CCRF-CEM 30.3 µM | ACHN 25.4 µM | SW-620 43 µM | SR 49.5 µM | SK-OV-3 36.6 µM | EKVX 19.5 µM | COLO 205 36.9 µM | OVCAR-8 21.4 µM | A498 > 100 µM | SF-268 24.8 µM | PC-3 27.9 µM | HL-60 24.5 µM | OVCAR-3 31 µM | MOLT-4 32.2 µM | HT-29 37.2 µM | IGROV-1 47.1 µM | TK-10 31.8 µM | NCI-H226 38.5 µM | SK-MEL-5 27.6 µM | BT-549 11.2 µM | 786-0 > 10 µM | SK-MEL-28 74.1 µM | CAKI-1 66.8 µM | A549 30.7 µM | K562 51.9 µM | UO-31 17.5 µM | M14 68.2 µM | NCI-H522 18.8 µM | NCI/ADR-RES 80.5 µM | Hs-578T 39.2 µM
53.5 µM: HCT-15

Cc1ccc(S(=O)(=O)N(CC(O)COc2ccccc2)c2c(F)c(F)cc(F)c2F)cc1 (configuration not stated)
inactive: MDA-MB-435 16.9 µM | LOX IMVI 16.6 µM | MCF7 16.4 µM | UACC-62 16.6 µM | SNB-75 20.5 µM | T47D 19.7 µM | RPMI-8226 18.7 µM | NCI-H460 16.7 µM | SNB-19 27.6 µM | OVCAR-5 29 µM | DU-145 40.8 µM | HOP-62 21.3 µM | Malme-3M 23.1 µM | MDA-N 17.2 µM | MDA-MB-231 18.3 µM | HOP-92 11.7 µM | U-251 21 µM | HCT-116 37 µM | SF-539 20 µM | SK-MEL-2 17.2 µM | HCC 2998 23.6 µM | OVCAR-4 18.7 µM | SN12C 22.5 µM | SF-295 24 µM | NCI-H23 18.8 µM | KM12 25.7 µM | CCRF-CEM 33.4 µM | ACHN 21.2 µM | SW-620 30.3 µM | SR 3.53 µM | SK-OV-3 19.4 µM | EKVX 27.9 µM | COLO 205 15.7 µM | OVCAR-8 22.4 µM | A498 20.3 µM | SF-268 18.7 µM | PC-3 18.3 µM | HL-60 4.21 µM | OVCAR-3 20.5 µM | HT-29 16.8 µM | TK-10 32.9 µM | NCI-H226 23.1 µM | SK-MEL-5 15.9 µM | BT-549 24.5 µM | 786-0 22.3 µM | SK-MEL-28 19.5 µM | CAKI-1 15.3 µM | A549 21.9 µM | UO-31 20.4 µM | M14 23.7 µM | NCI/ADR-RES 18.1 µM | Hs-578T 24.3 µM
20.9 µM: HCT-15
active: MOLT-4 < 0.01 µM
